The experiment has as its target T1, Human CaV2.2 channels (Homo sapiens, UniProt Q00975).
T1 construct: expressed in transfected cells
Put plainly: Fluorescent assay for CaV2.2 channels using potassium depolarization to induce channel opening (FLIPR, Fluo-4). It is filed as cell-based. The note with it: 3 μM test compound, 30 mM KCl, HEK293 cells stably expressing human CaV2.2; read-out: %-Inhib (CaV2.2) @3 μM @30 mM KCl. Put shortly:
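HEK293 cells stably co-expressing CaV2.2 with α2δ and β subunits plus Kir2.3 were Fluo-4 loaded, then preincubated 15 min at 25 °C with compound in 30 mM KCl buffer, pH 7.4. Depolarization was by adding buffer containing 210 mM KCl. Inhibition was taken from baseline-normalized peak fluorescence amplitude (ex 480/em 535 nm).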
T1 sequence (Q00975 whole entry): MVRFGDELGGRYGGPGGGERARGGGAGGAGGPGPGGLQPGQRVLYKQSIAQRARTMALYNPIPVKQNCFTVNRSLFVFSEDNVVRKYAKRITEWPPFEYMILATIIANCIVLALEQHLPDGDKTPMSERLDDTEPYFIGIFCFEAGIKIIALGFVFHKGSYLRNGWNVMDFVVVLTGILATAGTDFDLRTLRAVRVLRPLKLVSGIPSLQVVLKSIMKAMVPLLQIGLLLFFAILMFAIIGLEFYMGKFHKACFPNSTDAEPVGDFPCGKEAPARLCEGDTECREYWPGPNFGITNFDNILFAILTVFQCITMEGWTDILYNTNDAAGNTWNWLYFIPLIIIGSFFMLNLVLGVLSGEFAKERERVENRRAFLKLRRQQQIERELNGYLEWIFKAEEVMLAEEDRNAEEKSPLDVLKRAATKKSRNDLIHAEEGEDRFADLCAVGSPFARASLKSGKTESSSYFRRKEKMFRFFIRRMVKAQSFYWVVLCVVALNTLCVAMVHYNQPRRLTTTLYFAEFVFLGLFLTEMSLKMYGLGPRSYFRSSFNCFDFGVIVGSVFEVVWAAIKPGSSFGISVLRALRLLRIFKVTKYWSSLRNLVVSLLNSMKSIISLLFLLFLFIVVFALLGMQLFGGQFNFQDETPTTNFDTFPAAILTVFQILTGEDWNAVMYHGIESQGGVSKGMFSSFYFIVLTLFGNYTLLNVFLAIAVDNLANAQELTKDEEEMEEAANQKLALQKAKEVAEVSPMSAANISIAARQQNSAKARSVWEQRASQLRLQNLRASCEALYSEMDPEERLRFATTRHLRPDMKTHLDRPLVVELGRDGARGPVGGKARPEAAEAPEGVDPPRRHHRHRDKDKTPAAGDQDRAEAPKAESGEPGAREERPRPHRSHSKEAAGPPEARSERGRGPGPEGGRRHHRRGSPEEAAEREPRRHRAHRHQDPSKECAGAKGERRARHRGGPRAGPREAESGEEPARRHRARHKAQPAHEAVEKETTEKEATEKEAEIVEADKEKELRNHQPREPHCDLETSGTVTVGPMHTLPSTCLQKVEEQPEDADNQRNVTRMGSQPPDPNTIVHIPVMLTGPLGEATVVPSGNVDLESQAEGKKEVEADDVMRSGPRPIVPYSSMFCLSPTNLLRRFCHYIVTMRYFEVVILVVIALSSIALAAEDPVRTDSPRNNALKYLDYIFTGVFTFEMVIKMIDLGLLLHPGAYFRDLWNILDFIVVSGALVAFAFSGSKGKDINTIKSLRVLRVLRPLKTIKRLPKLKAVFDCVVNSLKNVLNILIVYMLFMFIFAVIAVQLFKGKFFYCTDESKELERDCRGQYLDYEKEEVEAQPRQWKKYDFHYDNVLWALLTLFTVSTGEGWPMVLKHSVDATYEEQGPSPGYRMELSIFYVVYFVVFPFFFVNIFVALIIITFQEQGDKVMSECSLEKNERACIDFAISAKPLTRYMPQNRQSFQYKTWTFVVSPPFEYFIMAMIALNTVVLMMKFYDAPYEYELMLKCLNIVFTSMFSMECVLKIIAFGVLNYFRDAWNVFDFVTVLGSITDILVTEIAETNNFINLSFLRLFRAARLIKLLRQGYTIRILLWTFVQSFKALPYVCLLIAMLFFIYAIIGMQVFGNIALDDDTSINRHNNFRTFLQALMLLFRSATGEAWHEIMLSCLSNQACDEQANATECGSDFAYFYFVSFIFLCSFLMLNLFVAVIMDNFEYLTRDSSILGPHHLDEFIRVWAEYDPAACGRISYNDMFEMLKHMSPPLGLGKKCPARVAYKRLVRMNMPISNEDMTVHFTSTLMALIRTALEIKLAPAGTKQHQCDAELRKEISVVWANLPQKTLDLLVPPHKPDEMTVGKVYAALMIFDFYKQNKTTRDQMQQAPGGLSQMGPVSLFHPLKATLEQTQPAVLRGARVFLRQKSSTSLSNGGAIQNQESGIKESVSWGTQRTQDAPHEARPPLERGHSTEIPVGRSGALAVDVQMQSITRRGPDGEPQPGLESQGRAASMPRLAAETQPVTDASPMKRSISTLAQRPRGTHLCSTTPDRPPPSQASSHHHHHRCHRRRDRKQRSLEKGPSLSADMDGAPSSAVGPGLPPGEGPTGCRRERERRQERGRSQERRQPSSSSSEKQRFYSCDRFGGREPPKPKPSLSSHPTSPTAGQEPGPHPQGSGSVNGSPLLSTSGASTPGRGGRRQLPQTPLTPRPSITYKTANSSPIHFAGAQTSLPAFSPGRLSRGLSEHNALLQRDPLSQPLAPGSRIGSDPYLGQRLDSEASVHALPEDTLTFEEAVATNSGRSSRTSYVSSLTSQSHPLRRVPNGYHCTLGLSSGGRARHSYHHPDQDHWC
T1 sequence (P54289 25-1103, further chain): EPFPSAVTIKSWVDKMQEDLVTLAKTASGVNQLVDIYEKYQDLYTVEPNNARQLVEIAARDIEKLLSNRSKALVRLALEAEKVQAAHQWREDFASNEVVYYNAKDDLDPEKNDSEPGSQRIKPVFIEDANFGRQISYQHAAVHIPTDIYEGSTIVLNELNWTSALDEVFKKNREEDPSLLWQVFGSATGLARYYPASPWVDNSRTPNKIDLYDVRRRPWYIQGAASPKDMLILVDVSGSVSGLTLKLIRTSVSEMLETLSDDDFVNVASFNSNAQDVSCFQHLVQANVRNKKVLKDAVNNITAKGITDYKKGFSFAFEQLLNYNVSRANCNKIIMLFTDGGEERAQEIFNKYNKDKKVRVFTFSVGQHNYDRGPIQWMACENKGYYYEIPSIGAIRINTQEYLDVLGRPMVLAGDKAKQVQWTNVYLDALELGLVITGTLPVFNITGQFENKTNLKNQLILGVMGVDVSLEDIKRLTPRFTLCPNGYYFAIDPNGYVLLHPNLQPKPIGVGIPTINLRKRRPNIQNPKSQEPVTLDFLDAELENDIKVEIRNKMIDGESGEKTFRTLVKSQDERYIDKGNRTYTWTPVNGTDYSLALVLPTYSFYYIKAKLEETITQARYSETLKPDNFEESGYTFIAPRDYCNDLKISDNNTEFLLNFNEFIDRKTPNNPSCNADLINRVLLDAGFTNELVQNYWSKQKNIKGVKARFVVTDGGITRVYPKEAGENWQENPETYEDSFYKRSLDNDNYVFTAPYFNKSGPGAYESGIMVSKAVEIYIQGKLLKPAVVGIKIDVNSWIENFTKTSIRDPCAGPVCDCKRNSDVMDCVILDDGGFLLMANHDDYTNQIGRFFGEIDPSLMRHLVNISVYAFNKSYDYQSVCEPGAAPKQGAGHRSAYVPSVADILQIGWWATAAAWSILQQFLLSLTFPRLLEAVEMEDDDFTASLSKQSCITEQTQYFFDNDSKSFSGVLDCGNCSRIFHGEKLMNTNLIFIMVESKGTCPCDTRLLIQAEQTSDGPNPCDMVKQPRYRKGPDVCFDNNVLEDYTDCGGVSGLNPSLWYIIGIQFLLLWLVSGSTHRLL
T1 sequence (P54284 whole entry, further chain): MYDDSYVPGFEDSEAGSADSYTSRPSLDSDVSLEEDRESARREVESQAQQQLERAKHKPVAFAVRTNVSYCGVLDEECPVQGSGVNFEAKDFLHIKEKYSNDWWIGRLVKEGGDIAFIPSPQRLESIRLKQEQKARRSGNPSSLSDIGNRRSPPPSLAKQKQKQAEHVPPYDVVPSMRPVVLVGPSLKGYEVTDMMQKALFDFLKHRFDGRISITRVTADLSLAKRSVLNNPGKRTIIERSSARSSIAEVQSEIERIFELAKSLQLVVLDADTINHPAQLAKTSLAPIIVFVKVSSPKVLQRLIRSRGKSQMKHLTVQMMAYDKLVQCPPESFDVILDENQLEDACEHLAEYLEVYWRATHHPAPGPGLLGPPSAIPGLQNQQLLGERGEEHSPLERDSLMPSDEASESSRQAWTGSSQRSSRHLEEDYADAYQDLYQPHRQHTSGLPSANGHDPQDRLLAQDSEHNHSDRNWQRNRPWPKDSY
As to `Cc1c(-c2ccc(Cl)cc2)c(C(=O)N(C)CC(C)(CO)CO)n(Cc2ccccc2)c1C(F)(F)F` [SC-125, 1-Benzyl-3-(4-chlorophenyl)-N-[3-hydroxy-2-(hydroxymethyl)-2-methyl-propyl]-N,4-dimethyl-5-(trifluoromethyl)-1H-pyrrole-2-carboxylic acid amide], the inhibition at 3 µM was > 95%.

For the compound `Cc1c(-c2ccc(Cl)cc2)c(C(=O)N(C)C(C)(C)CO)n(Cc2ccccc2)c1C(F)(F)F` [SC-126, 1-Benzyl-3-(4-chlorophenyl)-N-(2-hydroxy-1,1-dimethyl-ethyl)-N,4-dimethyl-5-(trifluoromethyl)-1H-pyrrole-2-carboxylic acid amide], the inhibition at 3 µM is > 95%. For the compound `Cc1c(-c2ccc(Cl)cc2)c(C(=O)N(C)CCCS(C)(=O)=O)n(Cc2ccccc2)c1C(F)(F)F` [SC-127, 1-Benzyl-3-(4-chlorophenyl)-N,4-dimethyl-N-(3-methylsulfonyl-propyl)-5-(trifluoromethyl)-1H-pyrrole-2-carboxylic acid amide], the inhibition at 3 µM was > 95%. The value for `CCN(CCS(C)(=O)=O)C(=O)c1c(-c2ccc(Cl)cc2)c(C)c(C(F)(F)F)n1Cc1ccccc1` [SC-128, 1-Benzyl-3-(4-chlorophenyl)-N-ethyl-4-methyl-N-(2-methylsulfonyl-ethyl)-5-(trifluoromethyl)-1H-pyrrole-2-carboxylic acid amide] was > 95%; that for `Cc1c(-c2ccc(Cl)cc2)c(C(=O)NCCS(C)(=O)=O)n(Cc2ccccc2)c1C(F)(F)F` [SC-129, 1-Benzyl-3-(4-chlorophenyl)-4-methyl-N-(2-methylsulfonyl-ethyl)-5-(trifluoromethyl)-1H-pyrrole-2-carboxylic acid amide] was 75 to 95%; that for `Cc1c(-c2ccc(Cl)cc2)c(C(=O)N(C)CCS(=O)(=O)C(C)C)n(Cc2ccccc2)c1C(F)(F)F` [SC-130, 1-Benzyl-3-(4-chlorophenyl)-N-[2-(isopropylsulfonyl)-ethyl]-N,4-dimethyl-5-(trifluoromethyl)-1H-pyrrole-2-carboxylic acid amide] was > 95%. Next, `Cc1c(-c2ccc(Cl)cc2)c(C(=O)N(C)C2CCS(=O)(=O)CC2)n(Cc2ccccc2)c1C(F)(F)F` [SC-131, 1-Benzyl-3-(4-chlorophenyl)-N-(1,1-dioxo-thian-4-yl)-N,4-dimethyl-5-(trifluoromethyl)-1H-pyrrole-2-carboxylic acid amide]: > 95%. Next, `CCS(=O)(=O)CCN(C)C(=O)c1c(-c2ccc(Cl)cc2)c(C)c(C(F)(F)F)n1Cc1ccccc1` [SC-132, 1-Benzyl-3-(4-chlorophenyl)-N-[2-(ethylsulfonyl)-ethyl]-N,4-dimethyl-5-(trifluoromethyl)-1H-pyrrole-2-carboxylic acid amide]: > 95%; `Cc1c(-c2ccc(Cl)cc2)c(C(=O)N(C)CCC2CCCO2)n(Cc2ccccc2)c1C(F)(F)F` (stereo not shown) [SC-133, 1-Benzyl-3-(4-chlorophenyl)-N,4-dimethyl-N-(2-tetrahydro-furan-2-yl-ethyl)-5-(trifluoromethyl)-1H-pyrrole-2-carboxylic acid amide]: > 95%.

In the case of `Cc1c(-c2ccc(Cl)cc2)c(C(=O)N(C)CC2CCCO2)n(Cc2ccccc2)c1C(F)(F)F` (stereo not shown) [SC-134, 1-Benzyl-3-(4-chlorophenyl)-N,4-dimethyl-N-(tetrahydro-furan-2-yl-methyl)-5-(trifluoromethyl)-1H-pyrrole-2-carboxylic acid amide], the inhibition at 3 µM is > 95%. The value for `Cc1c(-c2ccc(Cl)cc2)c(C(=O)N(C)CC2CCC[C@@H]2O)n(Cc2ccccc2)c1C(F)(F)F` (stereo partly drawn) [SC-135, 1-Benzyl-3-(4-chlorophenyl)-N-[[(2S)-2-hydroxy-cyclopentyl]-methyl]-N,4-dimethyl-5-(trifluoromethyl)-1H-pyrrole-2-carboxylic acid amide] was > 95%; that for `Cc1c(-c2ccc(Cl)cc2)c(C(=O)N(C)CC2CCC[C@H]2O)n(Cc2ccccc2)c1C(F)(F)F` (stereo partly drawn) [SC-136, 1-Benzyl-3-(4-chlorophenyl)-N-[[(2R)-2-hydroxy-cyclopentyl]-methyl]-N,4-dimethyl-5-(trifluoromethyl)-1H-pyrrole-2-carboxylic acid amide] was > 95%; that for `Cc1c(-c2ccc(Cl)cc2)c(C(=O)N2CC(S(C)(=O)=O)C2)n(Cc2ccccc2)c1C(F)(F)F` [SC-137, [1-Benzyl-3-(4-chlorophenyl)-4-methyl-5-(trifluoromethyl)-1H-pyrrol-2-yl]-(3-methylsulfonyl-azetidin-1-yl)-methanone] was 75 to 95%. On to `Cc1c(-c2ccc(Cl)cc2)c(C(=O)N(C)CC2CCCCO2)n(Cc2ccccc2)c1C(F)(F)F` (stereo not shown) [SC-138, 1-Benzyl-3-(4-chlorophenyl)-N,4-dimethyl-N-(tetrahydro-pyran-2-yl-methyl)-5-(trifluoromethyl)-1H-pyrrole-2-carboxylic acid amide], for which the inhibition at 3 µM is 75 to 95%. Turning to `Cc1c(-c2ccc(Cl)cc2)c(C(=O)N(C)CC(C)(C)CN(C)CCN2CCCC2)n(Cc2ccccc2)c1C(F)(F)F` [SC-139, 1-Benzyl-3-(4-chlorophenyl)-N-[2,2-dimethyl-3-[methyl-(2-pyrrolidin-1-yl-ethyl)-amino]-propyl]-N,4-dimethyl-5-(trifluoromethyl)-1H-pyrrole-2-carboxylic acid amide], the inhibition at 3 µM was > 95%. `Cc1cc(CN(C)C(=O)c2c(-c3ccc(Cl)cc3)c(C)c(C(F)(F)F)n2Cc2ccccc2)on1` [SC-140, 1-Benzyl-3-(4-chlorophenyl)-N,4-dimethyl-N-[(3-methyl-isoxazol-5-yl)-methyl]-5-(trifluoromethyl)-1H-pyrrole-2-carboxylic acid amide]: the inhibition at 3 µM was > 95%. As to `Cc1c(-c2ccc(Cl)cc2)c(C(=O)N(C)C(C)CS(C)(=O)=O)n(Cc2ccccc2)c1C(F)(F)F` (stereo not shown) [SC-141, 1-Benzyl-3-(4-chlorophenyl)-N,4-dimethyl-N-(1-methyl-2-methylsulfonyl-ethyl)-5-(trifluoromethyl)-1H-pyrrole-2-carboxylic acid amide], the inhibition at 3 µM is > 95%.

Regarding `Cc1cc(CN(C)C(=O)c2c(-c3ccc(Cl)cc3)c(C)c(C(F)(F)F)n2Cc2ccccc2)no1` [SC-142, 1-Benzyl-3-(4-chlorophenyl)-N,4-dimethyl-N-[(5-methyl-isoxazol-3-yl)-methyl]-5-(trifluoromethyl)-1H-pyrrole-2-carboxylic acid amide], the inhibition at 3 µM is > 95%. Next, `Cc1nnc(CN(C)C(=O)c2c(-c3ccc(Cl)cc3)c(C)c(C(F)(F)F)n2Cc2ccccc2)o1` [SC-143, 1-Benzyl-3-(4-chlorophenyl)-N,4-dimethyl-N-[(5-methyl-[1,3,4]oxadiazol-2-yl)-methyl]-5-(trifluoromethyl)-1H-pyrrole-2-carboxylic acid amide]: > 95%; `Cc1c(-c2ccc(Cl)cc2)c(C(=O)N(C)Cc2ccncn2)n(Cc2ccccc2)c1C(F)(F)F` [SC-144, 1-Benzyl-3-(4-chlorophenyl)-N,4-dimethyl-N-(pyrimidin-4-yl-methyl)-5-(trifluoromethyl)-1H-pyrrole-2-carboxylic acid amide]: > 95%.

Turning to `COC1CCN(C(=O)c2c(-c3ccc(Cl)cc3)c(C)c(C(F)(F)F)n2Cc2ccccc2)CC1` [SC-145, [1-Benzyl-3-(4-chlorophenyl)-4-methyl-5-(trifluoromethyl)-1H-pyrrol-2-yl]-(4-methoxy-piperidin-1-yl)-methanone], the inhibition at 3 µM is > 95%. Take `Cc1c(-c2ccc(Cl)cc2)c(C(=O)N(C)Cc2cnccn2)n(Cc2ccccc2)c1C(F)(F)F` [SC-146, 1-Benzyl-3-(4-chlorophenyl)-N,4-dimethyl-N-(pyrazin-2-yl-methyl)-5-(trifluoromethyl)-1H-pyrrole-2-carboxylic acid amide]: the inhibition at 3 µM was in the range of 75 to 95%. The value for `Cc1c(-c2ccc(Cl)cc2)c(C(=O)N(C)Cc2ccnc(N(C)C)n2)n(Cc2ccccc2)c1C(F)(F)F` [SC-147, 1-Benzyl-3-(4-chlorophenyl)-N-[(2-dimethylamino-pyrimidin-4-yl)-methyl]-N,4-dimethyl-5-(trifluoromethyl)-1H-pyrrole-2-carboxylic acid amide] was 75 to 95%. The value for `Cc1c(-c2ccc(Cl)cc2)c(C(=O)N(C)Cc2nccn2C)n(Cc2ccccc2)c1C(F)(F)F` [SC-148, 1-Benzyl-3-(4-chlorophenyl)-N,4-dimethyl-N-[(1-methyl-1H-imidazol-2-yl)-methyl]-5-(trifluoromethyl)-1H-pyrrole-2-carboxylic acid amide] was > 95%; that for `Cc1c(-c2ccc(Cl)cc2)c(C(=O)N(C)C(C)C)n(Cc2ccccc2)c1C(F)(F)F` [SC-149, 1-Benzyl-3-(4-chlorophenyl)-N-isopropyl-N,4-dimethyl-5-(trifluoromethyl)-1H-pyrrole-2-carboxylic acid amide] was > 95%; that for `Cc1c(-c2ccc(Cl)cc2)c(C(=O)NC(C)C)n(Cc2ccccc2)c1C(F)(F)F` [SC-150, 1-Benzyl-3-(4-chlorophenyl)-N-isopropyl-4-methyl-5-(trifluoromethyl)-1H-pyrrole-2-carboxylic acid amide] was 75 to 95%.

With `Cc1cnc(CN(C)C(=O)c2c(-c3ccc(Cl)cc3)c(C)c(C(F)(F)F)n2Cc2ccccc2)cn1` [SC-151, 1-Benzyl-3-(4-chlorophenyl)-N,4-dimethyl-N-[(5-methyl-pyrazin-2-yl)-methyl]-5-(trifluoromethyl)-1H-pyrrole-2-carboxylic acid amide], the inhibition at 3 µM was > 95%. Next, `Cc1c(-c2ccc(Cl)cc2)c(C(=O)N(C)Cc2cnc(N(C)C)nc2)n(Cc2ccccc2)c1C(F)(F)F` [SC-152, 1-Benzyl-3-(4-chlorophenyl)-N-[(2-dimethylamino-pyrimidin-5-yl)-methyl]-N,4-dimethyl-5-(trifluoromethyl)-1H-pyrrole-2-carboxylic acid amide]: > 95%.

These data come from patent publication US9302988B2, “Fluoromethyl-substituted pyrrole carboxamides” (GRÜNENTHAL GMBH, priority 2012, dated 2016).
